For test [1], the system named is MHC class I antigen expression. Briefly: Flow cytometry of IFN-increased class I antigen expression in FRTL-5 cells. It is filed as cell-based, rat. As to conditions: 100 U/ml γ-interferon, 6H medium (TSH), 40 hours. As for the experimental part: (§1) In this experiment 10^6 cells were incubated with MHC class II or MHC class I-specific antibodies as described (Montani, V., et al., ibid (1998b); Saji, M., et al., ibid (1992a); Balducci-Silano, P. L., et al., Endocrinology 139:2309-2313 (1998)). After 30 min on ice, cells were washed with phosphate buffered saline at pH 7.4 and incubated for 30 min with fluorescein-isothiocyanate (FITC)-conjugated antibodies then analyzed by flow cytometry on a FACScan Cytometer using CellQuest software (Becton Dickinson).
(§2) The concentration needed to achieve suppression of the interferon induced class I or class II surface expression was determined by testing different concentrations of the compounds (Table 18). Like all other assays, the order of effectiveness was compound 10>11>7 or 8>2>MMI>3.
For orientation: Flow cytometry measures light scatter and fluorescence of single cells or particles in a stream.

The test system of test [2] is swine class I promoter (PD1). The experiment in a line: Transient transfection CAT assay, class I promoter chimeras in FRTL-5 cells. To be noted: for inhibition at 10 µM / inhibition at 25 µM / inhibition at 100 µM / inhibition at 1000 µM / inhibition at 5000 µM: Sus scrofa; for CAT activity +γIFN (100 U/ml): 5H medium. The format is cell-based. The text has this: The full length PD1 promoter, PD1 CAT construct pH […], inserted into the multicloning site of pSV3CAT, has been previously described (Erhlich, R. et al. Immunogenetics 30:18-26 (1989)). […] The deletion series was also cloned into the pSV3CAT reporter construct to assess promoter activities (Weisman J D, et al. ibid (1991); Maguire, J. et al., Mol. Cell. Biol., 12:3078-3086 (1992)). […] The number denotes the most 5′-residue in the 5′-flanking region of the PD1 promoter.
FRTL-5 rat thyroid cells (Interthyr Research Foundation, Baltimore, Md.; ATCC CRL8305) were the same subclone (F1) used in the gel shift experiments described earlier. They were grown in the following medium: Coon's modified F-12 medium containing 5% heat-treated, mycoplasma-free calf serum, 1 mM nonessential amino acids, and a mixture of six hormones (6H) containing bovine TSH (1×10^−10M), insulin (10 μg/ml), cortisol (0.4 ng/ml), transferrin (5 μg/ml), glycyl-L-histidyl-L-lysine acetate (10 ng/ml), and somatostatin (10 ng/ml). Cells were diploid and between their 5th and 25th passage. Fresh medium was added every 2 or 3 days and cells were passaged every 7-10 days. In some experiments, cells were grown to near confluency in 6H medium then maintained for 5-8 days, before experiments were initiated, in 5H medium with no TSH.
To measure the promoter activity of MHC class I promoter constructs, as reported by CAT activity, two procedures were used. In one, rat FRTL-5 thyroid cells were transfected by the electroporation method described previously (Saji, M., et al., ibid (1992b); Giuliani, C., et al., ibid (1995); Saji, M., et al., ibid (1997)). In brief, FRTL-5 cells were grown to 80% confluence, put in fresh 6H medium containing 5% calf serum for 12 hours, harvested, washed and suspended at 1.5×10^7 cells/mil in 0.8 ml electroporation buffer (272 mM sucrose, 7 mM sodium phosphate at pH 7.4, and 1 mM MgCl2). Twenty μg of the full-length CAT construct were added with 5 μg pSVGH. Cells were then pulsed (330 volts, capacitance 25 μfarad), plated (approximately 6×10^6 cell/dish), and cultured for 12 hours in 6H medium containing 5% calf serum. […] After 48 hours they were harvested. […] Medium was taken for hGH radioimmunoassay to monitor transfection efficiency (Nichols Institute, San Juan Capistrano, Calif.) and cells were harvested for CAT assays which used 20-50 μg cell lysate in a final volume of 130 μl. Incubation was at 37° C. for 2 or 4 hours; acetylated chloramphenicol was separated by thin layer chromatograpy (TLC) and positive spots on TLC plates were cut out and quantitated in a scintillation spectrometer. CAT activity was normalized to GH activity and/or cell protein before data were compared.
Alternatively transient transfections used the same class I-CAT chimeras and a DEAE-dextran procedure (Lopata M A, et al., Nucleic Acids Res. 12:5707-5717 (1984); Giuliani C, et al., ibid (1995)). Cells were grown to near (80%) confluency in 6H medium, shifted to 5H medium for 1 day, washed twice with Dulbecco's modified phosphate buffered saline (DPBS), pH 7.4, and incubated 1 hour with 5 ml serum-free 5H medium containing the plasmid DNA plus 250 μg DEAE-dextran (5 Prime-3 Prime, Inc.). Cells were then exposed to 10% dimethylsulfoxide in DPBS for 3 min., washed twice in DPBS, cultured in 5H medium for 24 hours, then maintained therein another 48 hours with or without MMI, MMI derivatives or tautomeric cyclic thiones, as noted. Efficiency of transfection was determined by cotransfection as above or with 5 μg pRSVLuc (De Wet J R, et al., Mol. Cell. Biol. 7:725-737 (1987)).
In this experiment, FRTL-5 cells were grown to near confluency in 6H medium (plus TSH) and then were maintained in 5H medium (no TSH) for 7 days before being treated with γ-IFN or γ-IFN plus MMI for 40 hours. Control cells were those maintained in 5H medium for the same 40 hours. CAT activity was measured as described above.

For test [3], the system named is MHC class II antigen expression. The experiment in a line: Flow cytometry of IFN-increased class II antigen expression in FRTL-5 cells. It is filed as cell-based, rat. To be noted: 100 U/ml γ-interferon, 6H medium (TSH), 40 hours. On the procedure: […] 13 and 14. Cells were stained with a fluorescein isothiocyanate conjugated class II-specific monoclonal antibody to RT1.B (clone OX-6, Sera Labs, UK) for 60 min at 4° C., washed twice with Dulbecco's phosphate buffered saline, and subjected to laser flow cytometry.
as §1, §2

The subject of test [4] is Y box protein (TSEP-1) RNA. Briefly: Northern analysis of Y box protein (TSEP-1) RNA levels in FRTL-5 cells. The format is cell-based, rat. As to conditions: 40 hours. The text has this: Whereas γ-IFN decreases Y box protein RNA levels in FRTL-5 cells, MMI can reverse this action (FIG. 16). […] The rat TSEP-1 probe was the clone 31 insert, residues 5 to 1395 of the rat TSEP-1 nucleotide sequence reported (Ohmori, M., et al., ibid (1996)); rat β-actin was kindly provided by Dr. B. Paterson (NCI, Bethesda, Md.). Radiolabeling of all probes, hybridization (0.5-1.0×10^6cpm/ml), and washing were as described (Isozaki, O., et al., ibid (1989); Saji, M., et al., ibid (1992); Ohmori, M., et al., ibid (1996)).
The ability of the compounds to reverse the γ-IFN-induced decrease in TSEP-1 RNA levels is once again 10>11>7 or 8>2>MMI>3. This mimics data in all other assays.

Where [5] appears, read: FRTL-5, 10 μM, 100 U/ml γ-interferon, 6H medium, 40 hours, read-out: % inhibition of IFN-increased p(−203)CAT class I promoter activity.
Setting [6] is: FRTL-5, 25 μM, 6H medium, 36 hours, read-out: % inhibition of basal p(−203)CAT class I promoter activity.
Setting [7] is: FRTL-5, 100 μM, 6H medium, 36 hours, read-out: % inhibition of basal p(−203)CAT class I promoter activity.
[8] abbreviates: FRTL-5, 100 μM, 100 U/ml γ-interferon, 6H medium, 40 hours, read-out: % inhibition of IFN-increased p(−203)CAT class I promoter activity.
The mark [9] stands for this setting: FRTL-5, 1.0 mM, 6H medium, 36 hours, read-out: % inhibition of basal p(−203)CAT class I promoter activity.
Setting [10] is: FRTL-5, 1.0 mM, 100 U/ml γ-interferon, 6H medium, 40 hours, read-out: % inhibition of IFN-increased p(−203)CAT class I promoter activity.
The mark [11] stands for this setting: FRTL-5, read-out: % inhibition of IFN-increased p(−203)CAT class I promoter activity.
[12] abbreviates: FRTL-5, read-out: % inhibition of basal p(−203)CAT class I promoter activity.
[13] abbreviates: FRTL-5, 5 mM, 6H medium, 36 hours, read-out: % inhibition of basal p(−203)CAT class I promoter activity.
The mark [14] stands for this setting: FRTL-5, 5 mM, 100 U/ml γ-interferon, 6H medium, 40 hours, read-out: % inhibition of IFN-increased p(−203)CAT class I promoter activity.

Read-outs that look alike come from different tables or passages of the source.

As a reminder, the inhibition is the drop in the measured response relative to a control, in per cent.

Consider `Cn1c(-c2ccccc2)cnc1S` [Compound 10, 5-Phenylmethimazole], for which, in test [1], the “Concentration to inhibit IFN-increased antigen expression, Class I” value is 40 ± 10 µM. Also, the inhibition at 10 µM in test [2] (setting [5]) is 35 ± 10%. Further, in test [2] (setting [6]), the inhibition at 25 µM is 45 ± 9%. Also, the inhibition at 100 µM in test [2] (setting [7]) was determined as 71 ± 6%; in test [2] (setting [8]), 81 ± 14%. Further, the figures for the inhibition at 1000 µM in test [2] (setting [9]) and in test [2] (setting [10]) were 92 ± 12% and 90 ± 13%, respectively. Moreover, the “Concentration to inhibit IFN-increased antigen expression, Class II” value in test [3] amounted to 54 ± 11 µM. For the same molecule, the “Y box protein (TSEP-1) RNA level, compound +γIFN” value in test [4] (100 μM compound + γIFN) worked out at 183 ± 12%; in test [4] (1 mM compound + γIFN), 178 ± 10%. Also, the “Y box protein (TSEP-1) RNA level, compound ALONE” value in test [4] (100 μM compound alone) worked out at 124 ± 4%; in test [4] (1 mM compound alone) it was 122 ± 8%.
`Cn1ccn(C)c1=S` [Compound 8, N-Methylmethimazole]: the “Concentration to inhibit IFN-increased antigen expression, Class I” value in test [1] amounted to 356 ± 70 µM. Further, the “% inhibition of IFN-increased p(−203)CAT class I promoter activity” value in test [2] (10 μM, 100 U/ml γ-interferon, 6H medium, 40 hours) stood at 0%; in test [2] (100 μM, 100 U/ml γ-interferon, 6H medium, 40 hours), 38 ± 9%; in test [2] (1.0 mM, 100 U/ml γ-interferon, 6H medium, 40 hours), 69 ± 7%; in test [2] (5 mM, 100 U/ml γ-interferon, 6H medium, 40 hours), 77 ± 14%. Also, the “% inhibition of basal p(−203)CAT class I promoter activity” value in test [2] (25 μM, 6H medium, 36 hours) is 5 ± 5%; in test [2] (100 μM, 6H medium, 36 hours) it was 48 ± 10%; in test [2] (1.0 mM, 6H medium, 36 hours) it was 72 ± 6%; in test [2] (5 mM, 6H medium, 36 hours) it was 87 ± 11%. For the same molecule, the “Concentration to inhibit IFN-increased antigen expression, Class II” value in test [3] amounted to 439 ± 93 µM. Moreover, the figures for the “Y box protein (TSEP-1) RNA level, compound +γIFN” value in test [4] (100 μM compound + γIFN) and in test [4] (1 mM compound + γIFN) were 77 ± 6% and 148 ± 12%, respectively. The results for the “Y box protein (TSEP-1) RNA level, compound ALONE” value in test [4] (100 μM compound alone) and in test [4] (1 mM compound alone) were 119 ± 13% and 115 ± 5%, respectively.
Turning to `Sc1nc2ccccc2[nH]1` [Compound 4, 2-Mercaptobenzimidazole], in test [2] (setting [11]), the inhibition at 10 µM was 0%, the inhibition at 100 µM was determined as 0%, the inhibition at 1000 µM was found to be 40 ± 8% and the inhibition at 5000 µM was found to be 76 ± 10%. Also, in test [2] (setting [12]), the inhibition at 25 µM came to 0%, the inhibition at 100 µM is 0%, the inhibition at 1000 µM was found to be 50 ± 12% and the inhibition at 5000 µM is 90 ± 14%.
Regarding `Cc1cnc(S)n1C` [Compound 9, 5-Methylmethimazole], in test [2] (setting [5]), the inhibition at 10 µM was determined as 0%. Moreover, the inhibition at 25 µM in test [2] (setting [6]) turned out to be 0%. The inhibition at 100 µM in test [2] (setting [7]) and in test [2] (setting [8]) was 0% each time. Further, the results for the inhibition at 1000 µM in test [2] (setting [9]) and in test [2] (setting [10]) were 14 ± 10% and 10 ± 10%, respectively. Also, the results for the inhibition at 5000 µM in test [2] (setting [13]) and in test [2] (setting [14]) were 25 ± 7% and 29 ± 11%, respectively.
Turning to `O=[N+]([O-])c1ccc2[nH]c(S)nc2c1` [Compound 5, 2-Mercapto-5-nitrobenzimidazole], the figures for the inhibition at 5000 µM in test [2] (setting [13]) and in test [2] (setting [14]) were 45 ± 8% and 43 ± 9%, respectively.
For `Cc1ccc2[nH]c(S)nc2c1` [Compound 6, 2-Mercapto-5-methylbenzimidazole] the same measures were 57 ± 13% and 49 ± 7%.

B1: γ-IFN: rat recombinant γ-interferon, 100 U/ml, used to increase MHC class I and class II expression in FRTL-5 cells (protein, UniProt P01581 23-156, looked up)
Interferon gamma: QGTLIESLESLKNYFNSSSMDAMEGKSLLLDIWRNWQKDGNTKILESQIISFYLRLFEVLKDNQAISNNISVIESHLITNFFSNSKAKKDAFMSIAKFEVNNPQIQHKAVNELIRVIHQLSPESSLRKRKRSRC
For B1, the “CAT activity +γIFN (100 U/ml)” value in test [2] (chimera p(−127), 40 hours) is 500 ± 27 % of Control; in test [2] (chimera p(−203), 40 hours), 750 ± 25 % of Control; in test [2] (chimera p(−1100), 40 hours), 460 ± 40 % of Control; in test [2] (pSV0 control plasmid, 40 hours), 48 ± 7 % of Control. In test [4] (γ-IFN alone, 100 Units/ml), the “Y box protein (TSEP-1) RNA level +γIFN, % Control” value is listed as 45 ± 6%.

(Values after US6365616B1, “Methimazole derivatives and tautomeric cyclic thiones to treat autoimmune diseases” (Sentron Medical, Inc., priority 1998, dated 2002).)
